According to patent US20150107993A1, “METHODS AND APPARATUSES FOR […] POLLUTION” (Transfert Plus, s.e.c., priority 2012, published 2015):
pEC50: −log10 of the molar value.

What was measured:
[1] = system: green algae Chlamydomonas reinhardtii (CC-125); assay: Algal fluorescence inhibition (F25m) measured with the microfluidic OLED/OPD test apparatus; assay type: cell-based; settings: 1×10^6 cell/ml algal culture
Experimental: According to an experimental evaluation using the test apparatus, green algae Chlamydomonas reinhardtii (CC-125) was cultivated in 250 mL Erlenmeyer flasks in High Salt Medium (HSM) with the adjusted pH=6.8±0.1. The algae were grown at 25° C. under a light intensity of 100 μmol·m-2·s-1 provided by white-light neon lamps and a 16 h-light/8 h-dark cycle. Cells were maintained continuously in the mid-exponential growth phase (up to 4×10^6 cell/ml) before experiments. To measure the minimum density of algae that can be detected, successive dilutions of a 3×10^6 cell/ml algal culture were prepared in HSM. These solutions were dark adapted for 15 min before fluorescence measurement in order to reoxidize photosystem II reaction centers.
According to the experimental evaluation using the test apparatus, pollutant detection measurements, a 1×10^6 cell/ml green algal culture was used. […] Algal exposure to ethanol concentration used in this study (without DCMU) had no effect on the fluorescence measurements (data not shown). […]
It was noticed that the injection of the pollutant changes fluorescence kinetics. An increase in the fluorescence signal for the first 100 ms, proportional to the pollutant concentration was observed. DCMU induced this fluorescence increase because it blocks the electron transfer in PSII. […]

Algae culture CC125 = assay: Oxygen concentration measurement with the nanofilament electrical detector in a microfluidic channel; assay type: cell-based, Chlamydomonas reinhardtii; settings: 1 μM Diuron; CC125 5M cell/ml; -0.6V between working and reference electrode
Experimental: According to an experimental evaluation, in order to measure the oxygen level, the electrodes making up the electrical detector are integrated in a glass microfluidic channel, and aligned on an OLED. Algae culture CC125 (5M cell/ml concentration) is injected in the microfluidic channel, the oxygen measure being continuously taken through applying-0.6V between the working electrode and the reference electrode. A Diuron concentration of 1 uM is added to the algae culture before the injection into the chip and the measuring. Standard measures of 1 uM of pollutant were made in triplicate.
Oxygen variation of algae, which is the combination of both production and breathing of algae, can therefore be linked to the pollutant concentration contained in the analyte. In order to measure oxygen production, this detector is also composed of the same organic light source used by the fluorescence detector (OLED.
FIG. 22A refers to oxygen concentration levels measured with the electrical detector for 1 μM of Diuron and with a reference (that has not been exposed to Diuron).

[2] = system: green algae Chlamydomonas reinhardtii (CC-125); assay: Algal fluorescence inhibition (Vj) measured with the commercial Handy-PEA fluorometer; assay type: cell-based; settings: Handy-PEA commercial system, 1×10^6 cell/ml algal culture, same experimental conditions, read-out: concentration of DCMU inhibiting 50% of the algae photochemistry (EC50), evaluated with Vj
Experimental: According to the experimental evaluation using the test apparatus, pollutant detection measurements, a 1×10^6 cell/ml green algal culture was used. Different concentrations of Diuron or DCMU (3(3,4-dichlorophenyl)-1,1-dimethylurea from Aldrich) were prepared in pure ethanol. For each measurement, 30 μL of DCMU was mixed with 2 mL of algal solution. The mixtures were exposed for 30 min under a 100 μmol·m-2·s-1 light intensity, and then dark adapted for 15 min before being injected into the microfluidic chip with a syringe pump to fully fill a microfluidic chamber (around 10 μL). Algal exposure to ethanol concentration used in this study (without DCMU) had no effect on the fluorescence measurements (data not shown). Each measurement was replicated three times. […]
According to the experimental evaluation using the test apparatus, Handy-PEA fluorometer (Hansatech Ltd.) was used as the commercial available equipment to be compared with the microfluidic sensor. […] Fluorescence emission was detected for wavelengths over 700 nm.
According to the experimental evaluation using the test apparatus, from this kinetic of the fluorescence signal, it is possible to extract several parameters representing physiological processes. […] The relative variable fluorescence at 2 ms Vj is very sensitive to Diuron as it is proportional to reaction centers closed at 2 ms. […]

SMILES: CN(C)C(=O)Nc1ccc(Cl)c(Cl)c1 [Diuron, 3(3,4-dichlorophenyl)-1,1-dimethylurea]
- lowest concentration tested that gave a significant difference with the control algae for the Finh parameter ([1]; 30 min of light exposure): 7.5 nM
- pEC50 ([1]; Chlamydomonas reinhardtii, test apparatus, 30 min light exposure, 15 min dark adaptation, read-out: concentration of DCMU inhibiting 50% of the algae photochemistry (EC50), evaluated with F25m): 7.96
- decrease in total oxygen production from algae (Algae culture CC125): about 26%
- pEC50 [2]: 6.66
